Test results published in US20260000642A1 (Tay Therapeutics Limited, priority 2022, published 2026).
Where “and” joins values, the source holds several entries; their conditions need not be identical. Equal entries are not always repeated.

Test system: collagen-induced arthritis in Lewis rats
Assay: Collagen-induced arthritis (CIA) model in rats: body weight, paw volume, clinical scores, clinical observations; as to Detailed Clinical Scores, left forelimb: key of the grades not given here; as to Detailed Clinical Scores, left hind limb: key of the grades not given here; as to Detailed Clinical Scores, right forelimb: key of the grades not given here; as to Detailed Clinical Scores, right hind limb: key of the grades not given here; as to Detailed Clinical Scores, score: key of the grades not given here
Conditions: for Detailed Clinical Scores, left forelimb / Detailed Clinical Scores, left hind limb / Detailed Clinical Scores, right forelimb / Detailed Clinical Scores, right hind limb / Detailed Clinical Scores, score: CIA, per animal ID
[1] = CIA rats, 10 mg/kg, individual animals
[2] = CIA rats, 30 mg/kg, individual animals
[3] = CIA rats, 3 mg/kg twice daily for 21 days
[4] = CIA rats, 30 mg/kg twice daily for 21 days

Question: Which results are given for `CNC(=O)c1[nH]c(C(=O)NC2CCC2)cc1O[C@@H](C)c1ccccc1` [Example 101, N^5-cyclobutyl-N^2-methyl-3-(1-phenylethoxy)-1H-pyrrole-2,5-dicarboxamide]?
Answer: amelioration of clinical symptoms associated with CIA (3 mg/kg, 10 mg/kg and 30 mg/kg twice daily): dose-dependent effect; Clinical Observation Day 15 [1]: Diarrhea; Clinical Observation Day 19 [1]: Diarrhea; Clinical Observation Day 12 [2]: Diarrhea; Clinical Observation Day 13 [2]: Diarrhea; Clinical Observation Day 16 [2]: Diarrhea; Clinical Observation Day 18 [2]: Diarrhea; Clinical Observation Day 19 [2]: Diarrhea; Clinical Observation Day 21 [2]: Diarrhea; diarrhea over the 21-day period (CIA rats, 3 mg/kg twice daily): did not have diarrhea; effect on hind paw volume relative to CIA + vehicle (group 2) [3]: less effective at preventing an increase in paw volume; increase in body weight, day 21 compared to day 0 [3]: 1.7%; animals that gained weight by the end of the study (of 8) (CIA rats, 3 mg/kg twice daily for 21 days (group 5)): 7/8; animals showing signs of disease (of 8) (CIA rats, 3 mg/kg twice daily, day 12): Three animals; animals showing signs of disease (of 8) (CIA rats, 3 mg/kg twice daily, day 14): all animals; diarrhea over the 21-day period (CIA rats, 10 mg/kg twice daily (group 6)): Two different animals; weight change, day 21 compared to day 0 (CIA rats, 10 mg/kg twice daily for 21 days): approximately 0.5%; animals that gained weight by the end of the study (of 8) (CIA rats, 10 mg/kg twice daily for 21 days (group 6)): 3/8; effect on hind paw volume relative to CIA + vehicle (group 2) (CIA rats, 10 mg/kg twice daily for 21 days, both paws, p<0.05): significantly decreased relative to group 2 on days 19 and 21; animals showing signs of disease (of 8) (CIA rats, 10 mg/kg twice daily, day 19): all animals; diarrhea over the 21-day period (CIA rats, 30 mg/kg twice daily (group 7)): Four different animals; effect on hind paw volume relative to CIA + vehicle (group 2) [4]: most effective dose at preventing an increase in paw volume; weight change, day 21 compared to day 0 [4]: approximately 0.5%; animals that gained weight by the end of the study (of 8) (CIA rats, 30 mg/kg twice daily for 21 days (group 7)): 3/8; animals showing signs of disease (of 8) (CIA rats, 30 mg/kg twice daily, day 12): One animal; hind paw volume increase at plateau relative to day 0 (CIA rats, 30 mg/kg twice daily, increase from around day 19): approximately 35%; Detailed Clinical Scores, left forelimb (Day 0, 3 mg/kg): 0; Detailed Clinical Scores, left hind limb (Day 0, 3 mg/kg): 0; Detailed Clinical Scores, right forelimb (Day 0, 3 mg/kg): 0; Detailed Clinical Scores, right hind limb (Day 0, 3 mg/kg): 0; Detailed Clinical Scores, score (Day 0, 3 mg/kg): 0; Detailed Clinical Scores, left forelimb (Day 0, 10 mg/kg): 0; Detailed Clinical Scores, left hind limb (Day 0, 10 mg/kg): 0; Detailed Clinical Scores, right forelimb (Day 0, 10 mg/kg): 0; Detailed Clinical Scores, right hind limb (Day 0, 10 mg/kg): 0; Detailed Clinical Scores, score (Day 0, 10 mg/kg): 0; Detailed Clinical Scores, left forelimb (Day 0, 30 mg/kg): 0; Detailed Clinical Scores, left hind limb (Day 0, 30 mg/kg): 0; Detailed Clinical Scores, right forelimb (Day 0, 30 mg/kg): 0; Detailed Clinical Scores, right hind limb (Day 0, 30 mg/kg): 0; Detailed Clinical Scores, score (Day 0, 30 mg/kg): 0; Average animal body weight percent change (Day 0, CIA + 3 mg/kg): 0.00%; Mean animal body weight (Day 0, CIA + 3 mg/kg): 165 g; Average animal body weight percent change (Day 0, CIA + 10 mg/kg): 0.00%; Mean animal body weight (Day 0, CIA + 10 mg/kg): 162 g; Average animal body weight percent change (Day 0, CIA + 30 mg/kg): 0.00%; Mean animal body weight (Day 0, CIA + 30 mg/kg): 162 g; Average animal body weight percent change (Day 1, CIA + 3 mg/kg): −0.49%; Mean animal body weight (Day 1, CIA + 3 mg/kg): 164 g; Average animal body weight percent change (Day 1, CIA + 10 mg/kg): −1.45%; Mean animal body weight (Day 1, CIA + 10 mg/kg): 160 g; Average animal body weight percent change (Day 1, CIA + 30 mg/kg): −0.83%; Mean animal body weight (Day 1, CIA + 30 mg/kg): 161 g; Average animal body weight percent change (Day 2, CIA + 3 mg/kg): −0.15%; Mean animal body weight (Day 2, CIA + 3 mg/kg): 165 g; Average animal body weight percent change (Day 2, CIA + 10 mg/kg): −1.29%; Mean animal body weight (Day 2, CIA + 10 mg/kg): 160 g; Average animal body weight percent change (Day 2, CIA + 30 mg/kg): −1.03%; Mean animal body weight (Day 2, CIA + 30 mg/kg): 160 g; Average animal body weight percent change (Day 3, CIA + 3 mg/kg): 1.01%; Mean animal body weight (Day 3, CIA + 3 mg/kg): 167 g; Average animal body weight percent change (Day 3, CIA + 10 mg/kg): 0.91%; Mean animal body weight (Day 3, CIA + 10 mg/kg): 164 g; Average animal body weight percent change (Day 3, CIA + 30 mg/kg): −1.32%; Mean animal body weight (Day 3, CIA + 30 mg/kg): 160 g; Average animal body weight percent change (Day 4, CIA + 3 mg/kg): 0.94%; Mean animal body weight (Day 4, CIA + 3 mg/kg): 166 g; Average animal body weight percent change (Day 4, CIA + 10 mg/kg): 0.99%; Mean animal body weight (Day 4, CIA + 10 mg/kg): 164 g; Average animal body weight percent change (Day 4, CIA + 30 mg/kg): 0.47%; Mean animal body weight (Day 4, CIA + 30 mg/kg): 163 g; Average animal body weight percent change (Day 5, CIA + 3 mg/kg): 1.81%; Mean animal body weight (Day 5, CIA + 3 mg/kg): 168 g; Average animal body weight percent change (Day 5, CIA + 10 mg/kg): 1.43%; Mean animal body weight (Day 5, CIA + 10 mg/kg): 165 g; Average animal body weight percent change (Day 5, CIA + 30 mg/kg): 0.90%; Mean animal body weight (Day 5, CIA + 30 mg/kg): 163 g; Detailed Clinical Scores, left forelimb (Day 6, 3 mg/kg): 0; Detailed Clinical Scores, right forelimb (Day 6, 3 mg/kg): 0; Detailed Clinical Scores, right hind limb (Day 6, 3 mg/kg): 0; Detailed Clinical Scores, left forelimb (Day 6, 10 mg/kg): 0; Detailed Clinical Scores, left hind limb (Day 6, 10 mg/kg): 0; Detailed Clinical Scores, right forelimb (Day 6, 10 mg/kg): 0; Detailed Clinical Scores, right hind limb (Day 6, 10 mg/kg): 0; Detailed Clinical Scores, score (Day 6, 10 mg/kg): 0; Detailed Clinical Scores, left forelimb (Day 6, 30 mg/kg): 0; Detailed Clinical Scores, left hind limb (Day 6, 30 mg/kg): 0; Detailed Clinical Scores, right forelimb (Day 6, 30 mg/kg): 0; Detailed Clinical Scores, right hind limb (Day 6, 30 mg/kg): 0; Detailed Clinical Scores, score (Day 6, 30 mg/kg): 0; Average animal body weight percent change (Day 6, CIA + 3 mg/kg): 3.40%; Mean animal body weight (Day 6, CIA + 3 mg/kg): 171 g; Average animal body weight percent change (Day 6, CIA + 10 mg/kg): 1.77%; Mean animal body weight (Day 6, CIA + 10 mg/kg): 165 g; Average animal body weight percent change (Day 6, CIA + 30 mg/kg): 0.03%; Mean animal body weight (Day 6, CIA + 30 mg/kg): 162 g; Average animal body weight percent change (Day 7, CIA + 3 mg/kg): 4.80%; Mean animal body weight (Day 7, CIA + 3 mg/kg): 173 g; Average animal body weight percent change (Day 7, CIA + 10 mg/kg): 2.23%; Mean animal body weight (Day 7, CIA + 10 mg/kg): 166 g; Average animal body weight percent change (Day 7, CIA + 30 mg/kg): 0.29%; Mean animal body weight (Day 7, CIA + 30 mg/kg): 162 g; Average animal body weight percent change (Day 8, CIA + 3 mg/kg): 4.69%; Mean animal body weight (Day 8, CIA + 3 mg/kg): 173 g; Average animal body weight percent change (Day 8, CIA + 10 mg/kg): 2.82%; Mean animal body weight (Day 8, CIA + 10 mg/kg): 167 g; Average animal body weight percent change (Day 8, CIA + 30 mg/kg): 1.21%; Mean animal body weight (Day 8, CIA + 30 mg/kg): 164 g; Average animal body weight percent change (Day 9, CIA + 3 mg/kg): 5.59%; Mean animal body weight (Day 9, CIA + 3 mg/kg): 174 g; Average animal body weight percent change (Day 9, CIA + 10 mg/kg): 4.86%; Mean animal body weight (Day 9, CIA + 10 mg/kg): 170 g; Average animal body weight percent change (Day 9, CIA + 30 mg/kg): 2.81%; Mean animal body weight (Day 9, CIA + 30 mg/kg): 166 g; Average animal body weight percent change (Day 10, CIA + 3 mg/kg): 6.84%; Mean animal body weight (Day 10, CIA + 3 mg/kg): 176 g; Average animal body weight percent change (Day 10, CIA + 10 mg/kg): 4.86%; Mean animal body weight (Day 10, CIA + 10 mg/kg): 170 g; Average animal body weight percent change (Day 10, CIA + 30 mg/kg): 2.27%; Mean animal body weight (Day 10, CIA + 30 mg/kg): 166 g; Average animal body weight percent change (Day 11, CIA + 3 mg/kg): 7.79%; Mean animal body weight (Day 11, CIA + 3 mg/kg): 178 g; Average animal body weight percent change (Day 11, CIA + 10 mg/kg): 5.09%; Mean animal body weight (Day 11, CIA + 10 mg/kg): 171 g; Average animal body weight percent change (Day 11, CIA + 30 mg/kg): 2.22%; Mean animal body weight (Day 11, CIA + 30 mg/kg): 165 g; Detailed Clinical Scores, left forelimb (Day 12, 3 mg/kg): 0; Detailed Clinical Scores, left hind limb (Day 12, 3 mg/kg, 3 mg/kg): 1; Detailed Clinical Scores, right forelimb (Day 12, 3 mg/kg, 3 mg/kg): 0 (6×) and 1 (2×); Detailed Clinical Scores, left forelimb (Day 12, 10 mg/kg): 0; Detailed Clinical Scores, right forelimb (Day 12, 10 mg/kg): 0; Detailed Clinical Scores, left hind limb (Day 12, 10 mg/kg, 10 mg/kg): 1 (2×) and 0 (2×); Detailed Clinical Scores, right hind limb (Day 12, 10 mg/kg, 10 mg/kg): 2 and 0 (2×); Detailed Clinical Scores, score (Day 12, 10 mg/kg, 10 mg/kg): 1 (2×) and 2 and 0; Detailed Clinical Scores, left forelimb (Day 12, 30 mg/kg): 0; Detailed Clinical Scores, left hind limb (Day 12, 30 mg/kg): 0; Detailed Clinical Scores, right forelimb (Day 12, 30 mg/kg): 0; Detailed Clinical Scores, right hind limb (Day 12, 30 mg/kg, 30 mg/kg): 1 and 0 (5×); Detailed Clinical Scores, score (Day 12, 30 mg/kg, 30 mg/kg): 1 and 0 (4×); Average animal body weight percent change (Day 12, CIA + 3 mg/kg): 8.18%; Mean animal body weight (Day 12, CIA + 3 mg/kg): 178 g; Average animal body weight percent change (Day 12, CIA + 10 mg/kg): 4.18%; Mean animal body weight (Day 12, CIA + 10 mg/kg): 169 g
